Measured values: patent US20230141783A1, “DIFFERENT FORMS OF 6-CHLORO-2-ETHYL-N-(4-(4-(4-(TRIFLUOROMETHOXY)PHENYL)PIPERIDINE-1-YL)BENZYL)IMIDAZO[1,2-A]PYRIDINE-3-CARBOXAMIDE” (priority 2019, published 2023)
Converted amounts (≈) assume the structure as drawn. “Also recorded” adds a separate entry of the source. Read-outs that look alike come from different tables or passages of the source.

What was measured:
DVS water absorption = format: physicochemical; conditions: 90% RH at RT; ditosylate
Text: (FIGS. 4-5). It is the predominant form obtained in slurry experiments. Conversion from Form A to other XRPD patterns was mainly obtained from methanol (to Form C) or water (to pattern B) in the slurry medium. However, as it will be shown in further sections, Form C is converted to Form A upon re-slurry in the majority of other solvents (than methanol).
FIGS. 9 to 11 show XRPD, DSC, and TGA of a solid with Form C. […] The XRPD peaks of pattern C are sharper than those of Form A. Form C is the predominant form when methanol is used as the slurry medium. However, Form “C” is not a methanol solvate form of the di-tosylate salt. Many reactive crystallization experiments using different solvents generated Form C immediately after salt formation.

[1] = Exposing Forms A and C in 100% RH at RT (XRPD/DSC); format: physicochemical; conditions: 100% RH at RT for 6 days, ditosylate
Text: Forms A and C were exposed in 100% RH environment at RT for 6 days; the solids were subsequently analyzed using DSC and XRPD.
In FIGS. 1 and 17, the XRPD of sample of Form A (previous obtained form EA and IPA/MEK) before and after 6 days exposure to 100% RH are sketched. FIGS. 19 and 20 show the DSC scan of the same samples after exposure. […] FIGS. 18 and 21 show the result of the same treatment for Form C.

[2] = Forms A and C re-slurry in pure solvents at RT (aging experiments, XRPD); format: physicochemical; conditions: re-slurry of Forms A and C at RT; except in methanol
Procedure: These experiments were performed to investigate potential transformation between Form A and C. The procedure of the experiments is shown below. • 15 mg Form A and 15 mg Form C were add into a 1.5 ml vial with magnetic stirrer. • 20 vol (600 ul) of various solvents was added into the vial • The suspensions were stir at RT for 5 days • Then filter and the solid was sent for XRPD (before and after drying in oven) and DSC

[3] = Long-term stability at 25° C./60% RH (HPLC); format: physicochemical; conditions: for Purity [%] (as measured by HPLC): 25° C./60% RH
[4] = Stability under accelerated conditions 40° C./75% RH (HPLC); format: physicochemical; conditions: 40° C./75% RH, 6 months
physchem [5] = conditions: thermodynamic from solid
Procedure: Approximate solubility of the starting di-tosylate salt (Form A) was measured by gravimetry method. 100 mg of the solid was suspended in 10 vol of various solvents and stirred at RT and 50° C. for 3 days. The mother liquid was then used to measure the solubility.

[6] = Approximate solubility of the free base by gravimetry method; format: physicochemical; conditions: organic solvent or mixture, thermodynamic from solid
Procedure: The objective of measuring solubility of free base was to identify potential solvents for salt formation process development. Approximate solubility of the free base was measured by gravimetry method. Excess solids were added to various solvents including some Class III solvents (ICH guideline) at RT and 50° C. Since the solubility in these solvents is generally low, it was decided to mix water with these solvents. The suspensions were slurried for one day; the clear liquors from the top portion of the suspension were used for solubility determination by gravimetry method.

[7] = pKa analysis (UV-metric titration); format: physicochemical; conditions: methanol-water co-solvent, aqueous values by Yasuda-Shedlovsky extrapolation, 25.0-25.1 °C, 0.15 M KCl
Procedure: The sample pKas were determined using the spectrometric (UV-metric) technique. The sample was titrated in a UV-metric triple titration from pH 2.0-12.0 at concentrations of 31 -23 µM, under methanol-water co-solvent conditions (the methanol mixing ratio varied from 63.9 to 46.7% w/w).
It should be noted that an additional potentiometric assay was carried out which confirmed the pKas and that there were no further pKas associated with the sample within the measurable pH range (2.0-12.0).

cytochrome bc1 = cytochrome bc1 (Mycobacterium tuberculosis, UniProt P9WP37); conditions: Pethe et al., Nature Medicine, 19, 1157-1160 (2013); inhibiting cytochrome bc1 activity; cited from earlier work
Sequence of cytochrome bc1 (P9WP37 whole entry, looked up): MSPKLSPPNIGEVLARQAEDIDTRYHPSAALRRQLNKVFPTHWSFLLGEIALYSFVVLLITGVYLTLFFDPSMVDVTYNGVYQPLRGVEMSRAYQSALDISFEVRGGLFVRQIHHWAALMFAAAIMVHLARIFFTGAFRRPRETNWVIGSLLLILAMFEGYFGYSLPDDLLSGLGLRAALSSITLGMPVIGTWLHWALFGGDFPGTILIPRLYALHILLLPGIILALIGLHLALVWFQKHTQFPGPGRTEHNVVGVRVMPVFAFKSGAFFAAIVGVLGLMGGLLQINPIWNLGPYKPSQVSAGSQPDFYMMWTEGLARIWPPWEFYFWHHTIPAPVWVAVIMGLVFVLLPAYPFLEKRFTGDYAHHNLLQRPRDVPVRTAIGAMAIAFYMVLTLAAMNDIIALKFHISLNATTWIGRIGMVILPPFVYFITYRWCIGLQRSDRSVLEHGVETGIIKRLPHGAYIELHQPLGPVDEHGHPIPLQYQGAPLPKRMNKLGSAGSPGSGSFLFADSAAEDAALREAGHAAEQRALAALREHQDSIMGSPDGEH

[8] = Solubility estimation by aliquot addition and Clarity temperature cycling; conditions: for solubility: 20 °C, organic solvent or mixture, thermodynamic from solid
[9] = mono-tosylate
physchem [10] = conditions: pH 1, simulated gastric fluid, thermodynamic from solid

SMILES: CCc1nc2ccc(Cl)cn2c1C(=O)NCc1ccc(N2CCC(c3ccc(OC(F)(F)F)cc3)CC2)cc1.Cc1ccc(S(=O)(=O)O)cc1.Cc1ccc(S(=O)(=O)O)cc1 [Form A, 6-chloro-2-ethyl-N-(4-(4-(4-(trifluoromethoxy)phenyl)piperidine-1-yl)benzyl)imidazo[1,2-a]pyridine-3-carboxamide ditosylate]
- water absorption (DVS) (DVS water absorption): around 0.35%
- crystalline form after exposure to 100% RH [1]: maintains its crystalline form; also recorded: no change to crystalline
- relative polymorph stability [2]: more stable than Form C
- long-term storage stability ([3]; 25° C. and 60% RH for up to 60 months, listed as Q203-ditosylate form A, ditosylate): remains stable
- Purity [%] (as measured by HPLC) ([3]; 0 months): >98%
- Purity [%] (as measured by HPLC) ([3]; 6 months): >98%
- Purity [%] (as measured by HPLC) ([3]; 12 months): >98%
- Purity [%] (as measured by HPLC) ([3]; 24 months): >98%
- Purity [%] (as measured by HPLC) ([3]; 36 months): >98%
- Purity [%] (as measured by HPLC) ([3]; 48 months): >98%
- Purity [%] (as measured by HPLC) ([3]; 60 months): >98%
- purity (HPLC) [4]: > 98%
- Approximate solubility (Acetone, 50° C.): nil
- Approximate solubility (Acetone, RT): nil
- Approximate solubility (Acetonitrile, 50° C.): nil
- Approximate solubility (Acetonitrile, RT): nil
- Approximate solubility (Dichloromethane (DCM), 50° C.): nil
- Approximate solubility (Dichloromethane (DCM), RT): nil
- Approximate solubility (EA, 50° C.): nil
- Approximate solubility (EA, RT): nil
- Approximate solubility (IPA, RT): nil
- Approximate solubility (IPAC, 50° C.): nil
- Approximate solubility (IPAC, RT): nil
- Approximate solubility (MA, 50° C.): nil
- Approximate solubility (MA, RT): nil
- Approximate solubility (Methul Isobutyl Ketone (MIBK), RT): nil
- Approximate solubility (Methyl Ethyl Ketone (MEK), 50° C.): nil
- Approximate solubility (Methyl Ethyl Ketone (MEK), RT): nil
- Approximate solubility (Methyl tert-Butyl Ether (TBME), 50° C.): nil
- Approximate solubility (Methyl tert-Butyl Ether (TBME), RT): nil
- Approximate solubility (THF, 50° C.): nil
- Approximate solubility (THF, RT): nil
- Approximate solubility (Water, RT): nil
- solubility at 3 days (physchem [5]; IPA, 50 °C, organic solvent or mixture): 3 mg/mL
- solubility at 3 days (physchem [5]; ethanol (EtOH), 50 °C, organic solvent or mixture): 7 mg/mL
- solubility at 3 days (physchem [5]; ethanol (EtOH), organic solvent or mixture): 1 mg/mL
- solubility at 3 days (physchem [5]; methanol (MeOH), 50 °C, organic solvent or mixture): 275 mg/mL
- solubility at 3 days (physchem [5]; methanol (MeOH), organic solvent or mixture): 126 mg/mL
- solubility at 3 days (physchem [5]; methyl isobutyl ketone (MIBK), 50 °C, organic solvent or mixture): 2 mg/mL
- solubility at 3 days (physchem [5]; toluene, 50 °C, organic solvent or mixture): 3 mg/mL
- solubility at 3 days (physchem [5]; toluene, organic solvent or mixture): 1 mg/mL
- solubility at 3 days (physchem [5]; water, 50 °C): 3 mg/mL

SMILES: CCc1nc2ccc(Cl)cn2c1C(=O)NCc1ccc(N2CCC(c3ccc(OC(F)(F)F)cc3)CC2)cc1 [Q203 free base, 6-chloro-2-ethyl-N-(4-(4-(4-(trifluoromethoxy)phenyl)piperidine-1-yl)benzyl)imidazo[1,2-a]pyridine-3-carboxamide]
- solubility at 1 day ([6]; Acetone+5%water, 50° C.): 74 mg/mL (≈ 133 mM)
- solubility at 1 day ([6]; Acetone+5%water, RT): 22 mg/mL (≈ 39.5 mM)
- solubility at 1 day ([6]; Acetone+10%water, 50° C.): 42 mg/mL (≈ 75.4 mM)
- solubility at 1 day ([6]; Acetone, 50° C.): 48 mg/mL (≈ 86.2 mM)
- solubility at 1 day ([6]; EA and its mixture with water, 50° C.): 55 to 98 mg/mL (≈ 98.7 to 176 mM)
- solubility at 1 day ([6]; EA+4%water, 50° C.): 55 mg/mL (≈ 98.7 mM)
- solubility at 1 day ([6]; EA+4%water, RT): 16 mg/mL (≈ 28.7 mM)
- solubility at 1 day ([6]; Ethyl Acetate (EA), 50° C.): 99 mg/mL (≈ 178 mM)
- solubility at 1 day ([6]; Ethyl Acetate (EA), RT): 13 mg/mL (≈ 23.3 mM)
- solubility at 1 day ([6]; IPA or its mixture with water, 50° C.): 11 to 22 mg/mL (≈ 19.7 to 39.5 mM)
- solubility at 1 day ([6]; IPA+5%water, 50° C.): 22 mg/mL (≈ 39.5 mM)
- solubility at 1 day ([6]; IPA+15%water, 50° C.): 11 mg/mL (≈ 19.7 mM)
- solubility at 1 day ([6]; IPAC+4%water, 50° C.): 35 mg/mL (≈ 62.8 mM)
- solubility at 1 day ([6]; Isopropyl Acetate (IPAC), 50° C.): 51 mg/mL (≈ 91.6 mM)
- solubility at 1 day ([6]; Isopropyl Acetate (IPAC), RT): 26 mg/mL (≈ 46.7 mM)
- solubility at 1 day ([6]; Isopropyl Alcohol (IPA), 50° C.): 20 mg/mL (≈ 35.9 mM)
- solubility at 1 day ([6]; MA+4%water, 50° C.): 105 mg/mL (≈ 189 mM)
- solubility at 1 day ([6]; MA+4%water, RT): 18 mg/mL (≈ 32.3 mM)
- solubility at 1 day ([6]; Methyl Amine (MA), 50° C.): 94 mg/mL (≈ 169 mM)
- solubility at 1 day ([6]; Methyl Amine (MA), RT): 38 mg/mL (≈ 68.2 mM)
- solubility at 1 day ([6]; Tetrahydrofuran (THF), 50° C.): 279 mg/mL (≈ 501 mM)
- solubility at 1 day ([6]; Tetrahydrofuran (THF), RT): 133 mg/mL (≈ 239 mM)
- solubility at 1 day ([6]; acetone and its mixture with water, 50° C.): 41 to 74 mg/mL (≈ 73.6 to 133 mM)
- solubility at 1 day ([6]; methyl acetate, 50° C.): 94 to 105 mg/mL (≈ 169 to 189 mM)
- pKa [7]: 3.7 ± 0.06
- activity against tuberculosis (cytochrome bc1): active against tuberculosis
- Tcryst ([8]; IPA): 37.0-39.3 °C
- Tdisso ([8]; IPA): 52.5-55.7 °C
- solubility ([8]; IPA): < 25.3 mg/mL
- Tcryst ([8]; MEK): not observed
- Tdisso ([8]; MEK): ambient
- solubility ([8]; MEK): 50 to 56 mg/mL (≈ 89.8 to 101 mM)
- Tcryst ([8]; acetone): *not observed
- solubility ([8]; acetone): < 25.4 mg/mL
- Tdisso ([8]; acetone, partial solubility when heated, solid remained after two Clarity heat/cool cycles): *35 °C
- Tcryst ([8]; acetonitrile): 47.4-47.9 °C
- Tdisso ([8]; acetonitrile): 58.2-58.9 °C
- solubility ([8]; acetonitrile): < 25 mg/mL
- Tcryst ([8]; dichloromethane): not observed
- Tdisso ([8]; dichloromethane): ambient
- solubility ([8]; dichloromethane): 169 to 253 mg/mL (≈ 303 to 454 mM)
- Tcryst ([8]; dimethyl sulfoxide): 32.8-39.3 °C
- Tdisso ([8]; dimethyl sulfoxide): 53.6-54.7 °C
- solubility ([8]; dimethyl sulfoxide): < 25.5 mg/mL
- Tcryst ([8]; ethyl acetate): not observed
- Tdisso ([8]; ethyl acetate): ambient
- solubility ([8]; ethyl acetate): 34 to 36 mg/mL (≈ 61 to 64.6 mM)
- Tcryst ([8]; methanol): 25.3-26.6 °C
- Tdisso ([8]; methanol): 45.6-47.1 °C
- solubility ([8]; methanol): < 25 mg/mL
- Tcryst ([8]; methyl tert-butyl ether): not observed
- Tdisso ([8]; methyl tert-butyl ether): not observed
- solubility ([8]; methyl tert-butyl ether): < 25.6 mg/mL
- Tcryst ([8]; tetrahydrofuran): not observed
- Tdisso ([8]; tetrahydrofuran): ambient
- solubility ([8]; tetrahydrofuran): 128 to 255 mg/mL (≈ 230 to 458 mM)

SMILES: CCc1nc2ccc(Cl)cn2c1C(=O)NCc1ccc(N2CCC(c3ccc(OC(F)(F)F)cc3)CC2)cc1.Cc1ccc(S(=O)(=O)O)cc1 [pTSA salt, 6-chloro-2-ethyl-N-(4-(4-(4-(trifluoromethoxy)phenyl)piperidine-1-yl)benzyl)imidazo[1,2-a]pyridine-3-carboxamide mono-tosylate]
- solid form after slurrying in buffer (XRPD) ([9]; pH 1 buffer, listed as pTSA): remained the same pattern
- solid form after slurrying in buffer (XRPD) ([9]; pH 1 buffer): remained stable
- solid form after slurrying in buffer (XRPD) ([9]; pH 4.5 and above): converted to freebase (type 28)
- solubility (physchem [10]): ~0.33 mg/mL
